# Experimental data taken from PubChem BioAssay AID1963852 (Molecular Pharmacology Branch, DTP, NCI, 2024).
# Test system: 282377-053-R-J1-PDC complex spheroid viability
# Test: Anticancer human tumor 282377-053-R-J1-PDC patient-derived colon adenocarcinoma cell line growth inhibition [POLQ]
# Conditions: for IC50: curve of first compound; for viability, T/C: stronger effect = lower value
# Summary of the method: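 Patient-derived tumour cells were co-cultured with HUVEC and mesenchymal stem cells as multicellular spheroids at 37 °C. They were treated with POLQ inhibitors (novobiocin, ART-558, RP6685) alone or combined with other agents. Top concentrations were at or near clinical Cmax (otherwise 10 microM; SN-38 at 1 microM), decreasing in half-log steps.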
# [1] = second compound 0.0316 µM, first compound 0.0316 µM
# [2] = second compound 0.0316 µM, first compound 0.1 µM
# [3] = second compound 0.0316 µM, first compound 0.316 µM
# [4] = second compound 0.0316 µM, first compound 1 µM
# [5] = second compound 0.0316 µM, first compound 3.16 µM
# [6] = second compound 0.0316 µM, first compound 10 µM
# [7] = second compound 0.1 µM, first compound 0.0316 µM
# [8] = second compound 0.1 µM, first compound 0.1 µM
# [9] = second compound 0.1 µM, first compound 0.316 µM
# [10] = second compound 0.1 µM, first compound 1 µM
# [11] = second compound 0.1 µM, first compound 3.16 µM
# [12] = second compound 0.1 µM, first compound 10 µM
# [13] = second compound 0.316 µM, first compound 0.0316 µM
# [14] = second compound 0.316 µM, first compound 0.1 µM
# [15] = second compound 0.316 µM, first compound 0.316 µM
# [16] = second compound 0.316 µM, first compound 1 µM
# [17] = second compound 0.316 µM, first compound 3.16 µM
# [18] = second compound 0.316 µM, first compound 10 µM
# [19] = second compound 1 µM, first compound 0.0316 µM
# [20] = second compound 1 µM, first compound 0.1 µM
# [21] = second compound 1 µM, first compound 0.316 µM
# [22] = second compound 1 µM, first compound 1 µM
# [23] = second compound 1 µM, first compound 3.16 µM
# [24] = second compound 1 µM, first compound 10 µM
# [25] = second compound 3.16 µM, first compound 0.0316 µM
# [26] = second compound 3.16 µM, first compound 0.1 µM
# [27] = second compound 3.16 µM, first compound 0.316 µM
# [28] = second compound 3.16 µM, first compound 1 µM
# [29] = second compound 3.16 µM, first compound 3.16 µM
# [30] = second compound 3.16 µM, first compound 10 µM
# [31] = second compound 10 µM, first compound 0.0316 µM
# [32] = second compound 10 µM, first compound 0.1 µM
# [33] = second compound 10 µM, first compound 0.316 µM
# [34] = second compound 10 µM, first compound 1 µM
# [35] = second compound 10 µM, first compound 3.16 µM
# [36] = second compound 10 µM, first compound 10 µM
# 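Further: spheroids exposed to compounds for seven days.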
# 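Wherever viability, T/C is given: 100% = DMSO vehicle control viability.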
smiles,measurement,setting,value
O=C(Nc1ccc(O)c(NS(=O)(=O)c2ccc(F)cc2)c1)c1ccc(-c2ccccc2)cc1 + Nc1ccc(C#CCN(C(=O)Cc2ncc(C(F)(F)F)cc2C(F)(F)F)c2ccc(F)cc2)nn1,IC50,second compound 0.0316 µM,> 10 µM
same,IC50,second compound 0.1 µM,> 10 µM
same,IC50,second compound 0.316 µM,> 10 µM
same,IC50,second compound 1 µM,> 10 µM
same,IC50,second compound 3.16 µM,> 10 µM
same,IC50,second compound 10 µM,> 10 µM
same,"viability, T/C",[1],92.8%
same,"viability, T/C",[2],115%
same,"viability, T/C",[3],98.1%
same,"viability, T/C",[4],102%
same,"viability, T/C",[5],97.9%
same,"viability, T/C",[6],107%
same,"viability, T/C",[7],93.1%
same,"viability, T/C",[8],107%
same,"viability, T/C",[9],100%
same,"viability, T/C",[10],97.2%
same,"viability, T/C",[11],104%
same,"viability, T/C",[12],103%
same,"viability, T/C",[13],96.9%
same,"viability, T/C",[14],101%
same,"viability, T/C",[15],112%
same,"viability, T/C",[16],95.4%
same,"viability, T/C",[17],100%
same,"viability, T/C",[18],99.8%
same,"viability, T/C",[19],96.5%
same,"viability, T/C",[20],95.5%
same,"viability, T/C",[21],98.7%
same,"viability, T/C",[22],109%
same,"viability, T/C",[23],87.1%
same,"viability, T/C",[24],100%
same,"viability, T/C",[25],113%
same,"viability, T/C",[26],113%
same,"viability, T/C",[27],103%
same,"viability, T/C",[28],100%
same,"viability, T/C",[29],109%
same,"viability, T/C",[30],117%
same,"viability, T/C",[31],124%
same,"viability, T/C",[32],108%
same,"viability, T/C",[33],109%
same,"viability, T/C",[34],133%
same,"viability, T/C",[35],110%
same,"viability, T/C",[36],139%
Nc1ccn(C2OC(CO)C(O)C2(F)F)c(=O)n1 (stereo not drawn) + Nc1ccc(C#CCN(C(=O)Cc2ncc(C(F)(F)F)cc2C(F)(F)F)c2ccc(F)cc2)nn1,IC50,second compound 0.0316 µM,> 10 µM
same,IC50,second compound 0.1 µM,> 10 µM
same,IC50,second compound 0.316 µM,> 10 µM
same,IC50,second compound 1 µM,> 10 µM
same,IC50,second compound 3.16 µM,> 10 µM
same,IC50,second compound 10 µM,> 10 µM
same,"viability, T/C",[1],118%
same,"viability, T/C",[2],128%
same,"viability, T/C",[3],122%
same,"viability, T/C",[4],83.3%
same,"viability, T/C",[5],84.4%
same,"viability, T/C",[6],68.4%
same,"viability, T/C",[7],101%
same,"viability, T/C",[8],112%
same,"viability, T/C",[9],109%
same,"viability, T/C",[10],101%
same,"viability, T/C",[11],80.4%
same,"viability, T/C",[12],65.4%
same,"viability, T/C",[13],115%
same,"viability, T/C",[14],98.8%
same,"viability, T/C",[15],107%
same,"viability, T/C",[16],95.7%
same,"viability, T/C",[17],83%
same,"viability, T/C",[18],56.2%
same,"viability, T/C",[19],104%
same,"viability, T/C",[20],93.8%
same,"viability, T/C",[21],108%
same,"viability, T/C",[22],92.6%
same,"viability, T/C",[23],81%
same,"viability, T/C",[24],67.7%
same,"viability, T/C",[25],115%
same,"viability, T/C",[26],116%
same,"viability, T/C",[27],117%
same,"viability, T/C",[28],107%
same,"viability, T/C",[29],108%
same,"viability, T/C",[30],78.8%
same,"viability, T/C",[31],124%
same,"viability, T/C",[32],120%
same,"viability, T/C",[33],127%
same,"viability, T/C",[34],124%
same,"viability, T/C",[35],114%
same,"viability, T/C",[36],90.5%
COc1cc(C2c3cc4c(cc3C(OC3OC5COC(C)OC5C(O)C3O)C3COC(=O)C23)OCO4)cc(OC)c1O (stereo not drawn) + COC1C(OC(N)=O)C(O)C(Oc2ccc3c(O)c(NC(=O)c4ccc(O)c(CC=C(C)C)c4)c(=O)oc3c2C)OC1(C)C,IC50,second compound 0.0316 µM,> 10 µM
same,IC50,second compound 0.1 µM,> 10 µM
same,IC50,second compound 0.316 µM,9.29 µM
same,IC50,second compound 1 µM,8.39 µM
same,IC50,second compound 3.16 µM,> 10 µM
same,IC50,second compound 10 µM,> 10 µM
same,"viability, T/C",[1],95.7%
same,"viability, T/C",[2],111%
same,"viability, T/C",[3],97.1%
same,"viability, T/C",[4],80%
same,"viability, T/C",[5],78.3%
same,"viability, T/C",[6],49.5%
same,"viability, T/C",[7],75.8%
same,"viability, T/C",[8],92.8%
same,"viability, T/C",[9],102%
same,"viability, T/C",[10],90.7%
same,"viability, T/C",[11],67.9%
same,"viability, T/C",[12],53.5%
same,"viability, T/C",[13],101%
same,"viability, T/C",[14],80.1%
same,"viability, T/C",[15],85.3%
same,"viability, T/C",[16],77%
same,"viability, T/C",[17],73.8%
same,"viability, T/C",[18],46%
same,"viability, T/C",[19],89%
same,"viability, T/C",[20],86.8%
same,"viability, T/C",[21],86%
same,"viability, T/C",[22],81.1%
same,"viability, T/C",[23],77.3%
same,"viability, T/C",[24],45%
same,"viability, T/C",[25],76.5%
same,"viability, T/C",[26],96.1%
same,"viability, T/C",[27],97.2%
same,"viability, T/C",[28],89.8%
same,"viability, T/C",[29],70.1%
same,"viability, T/C",[30],51.7%
same,"viability, T/C",[31],87.4%
same,"viability, T/C",[32],83.2%
same,"viability, T/C",[33],118%
same,"viability, T/C",[34],68.5%
same,"viability, T/C",[35],70.3%
same,"viability, T/C",[36],53%
C#Cc1c(F)ccc2cc(O)cc(-c3ncc4c(N5CC6CCC(C5)N6)nc(OCC56CCCN5CC(F)C6)nc4c3F)c12 (stereo not drawn) + Nc1ccc(C#CCN(C(=O)Cc2ncc(C(F)(F)F)cc2C(F)(F)F)c2ccc(F)cc2)nn1,IC50,second compound 0.0316 µM,> 10 µM
same,IC50,second compound 0.1 µM,> 10 µM
same,IC50,second compound 0.316 µM,> 10 µM
same,IC50,second compound 1 µM,> 10 µM
same,IC50,second compound 3.16 µM,> 10 µM
same,IC50,second compound 10 µM,> 10 µM
same,"viability, T/C",[1],101%
same,"viability, T/C",[2],114%
same,"viability, T/C",[3],91.2%
same,"viability, T/C",[4],97.5%
same,"viability, T/C",[5],99.8%
same,"viability, T/C",[6],84.8%
same,"viability, T/C",[7],99.8%
same,"viability, T/C",[8],108%
same,"viability, T/C",[9],83.5%
same,"viability, T/C",[10],116%
same,"viability, T/C",[11],99.5%
same,"viability, T/C",[12],79.6%
same,"viability, T/C",[13],97.1%
same,"viability, T/C",[14],106%
same,"viability, T/C",[15],94.9%
same,"viability, T/C",[16],85.2%
same,"viability, T/C",[17],118%
same,"viability, T/C",[18],110%
same,"viability, T/C",[19],93%
same,"viability, T/C",[20],121%
same,"viability, T/C",[21],105%
same,"viability, T/C",[22],92.7%
same,"viability, T/C",[23],94.7%
same,"viability, T/C",[24],96.8%
same,"viability, T/C",[25],121%
same,"viability, T/C",[26],120%
same,"viability, T/C",[27],94%
same,"viability, T/C",[28],107%
same,"viability, T/C",[29],90.2%
same,"viability, T/C",[30],96.3%
same,"viability, T/C",[31],117%
same,"viability, T/C",[32],107%
same,"viability, T/C",[33],109%
same,"viability, T/C",[34],112%
same,"viability, T/C",[35],90.8%
same,"viability, T/C",[36],119%
